Experiment [1] relates to B16-F10 tumors. The experiment in a line: Tumor growth inhibition study, B16-F10 tumor-bearing mice. Particulars: B16-F10 in C57BL/6 mice; SB02024 20 mg·kg^−1 oral daily day 7-16; ADU-S100 10 μg intratumoral days 9, 11, 13, 15. The format is in vivo, mouse. An excerpt: Study protocols were approved by the Institutional Animal Care and Use Committee of CrownBio in China (AN‐1903‐05‐313) or the LIH's animal welfare committee in Luxembourg (agreement LECR‐2018‐12). Mice were handled according to European Union guidelines, adhering to the principles of replacement, reduction, and refinement (3Rs). Animals were housed in appropriate accommodations conducive to their well‐being, with provisions for housing, feeding, and environmental enrichment to meet their physical and behavioral needs. Highly skilled personnel were involved in carrying out procedures related to the animal experiments to ensure proper care and handling. Female 6 to 8‐week‐old BALB/c (supplied by Shanghai Lingchang Biotechnology Co., Shanghai, China; n = 14) or C57BL/6 mice (supplied by Janvier Labs, Le Genest‐Saint‐Isle, France; n = 40) were injected into the right flank with 1 × 10^6 Renca or 0.2 × 10^6 B16‐F10 cells, respectively, resuspended in 100 μL PBS (day 0). When tumors were palpable (day 9 for Renca, day 7 for B16‐F10 tumors), mice were randomly assigned into two groups for the Renca model with n = 6 (vehicle) and n = 8 (SB02024) or four groups for the B16‐F10 model with n = 10. […] Tumor growth was measured using a caliper every other day and estimated as follows: volume (cm^3) = (width)^2 × length × 0.5.

Details of experiment [2]: method as in PMID 34070756. The note with it: cited from earlier work.
The test system of experiment [3] is B16-F10 cells. The experiment in a line: IFN/cytokine gene expression (qRT-PCR) and secretion (MSD) in B16-F10 cells. The format is cell-based, murine. The note with it: 2 μM, 24 h, vs DMSO. The procedure:
(§1) RNA was isolated using the PureLink kit (#12183018A; Thermo Fisher) and DNA‐binding columns (Rneasy plus kit, #74134; Qiagen) and/or Dnase treatment (#12185010; Thermo Fisher). After quantification using NanoDrop, 50 ng·μL^−1 RNA was used for cDNA synthesis with SuperScript IV VILO Master Mix (#11756050; Thermo Fisher). Quantitative RT‐PCR was run with diluted cDNA (1 : 25 or 1 : 12.5), PowerUp SYBR Green Master Mix (#A25741; Thermo Fisher), and 200 nM primers (see Table S3) on a CFX Connect RT‐PCR system (BioRad, Hercules, CA, USA). Data were analyzed using the ΔΔCT method.
(§2) Cell culture medium was centrifuged at 300 g for 10 min at 4 °C and supernatant stored at −80 °C. Mouse blood was collected at termination in K2‐EDTA tubes on ice, centrifuged at 1270 g for 10 min at 4 °C, and plasma was stored at −80 °C. Cytokine levels were quantified using Mesoscale Discovery (MSD) assays: human CCL5 (#F21ZN), CXCL10 (#K151UFK), IFNβ (#K151VIK); mouse CCL5 (#K152A2K) and CXCL10 (#K152UFK). Low concentrations of human IFNβ were determined using High‐Sensitivity IFNβ ELISA (#41415‐1; PBL Assay Science, Piscataway, NJ, USA). CCL5/CXCL10 levels in some experiments were quantified using R&D Systems (Minneapolis, MN, USA) ELISAs: human CCL5 (#DY278) or CXCL10 (#DY266); mouse CCL5 (#DY478).
For orientation: Real-time PCR tracks product formation cycle by cycle.

Experiment [4] deals with Me30966 cells. Put plainly: Gene expression (qRT-PCR) in Me30966 cells. The format is cell-based, human. The note with it: 2 μM, 24 h, vs DMSO.
Protocol: (A) IFNB1 gene expression quantified by qRT-PCR after 24h treatment with DMSO control or 2 µM of VPS34 inhibitor
(=VPS34i, SB02024 or SAR405) in Me30966 cells.
The subject of experiment [5] is A-498 cells. The experiment in a line: IFN/cytokine gene expression (qRT-PCR) and secretion (MSD) in A-498 cells. The note with it: 2 μM, 24 h, vs DMSO. It counts as cell-based, human. The procedure:
as §1, §2

This is an account of results in PMC11306511, “Combining VPS34 inhibitors with STING agonists enhances type I interferon signaling and anti‐tumor efficacy” (Molecular Oncology, 2024).

As to `Nc1ncnc2c1ncn2[C@@H]1O[C@@H]2COP(=O)([S-])O[C@@H]3[C@H](O)[C@@H](COP([O-])(=S)O[C@H]2[C@H]1O)O[C@H]3n1cnc2c(N)ncnc21.[Na+].[Na+]` (some centres unmarked) [ADU-S100, reference compound], the “% TGI (percent tumor growth inhibition compared to vehicle control)” value in experiment [1] worked out at 36%. In experiment [2], the “anti-tumor efficacy in clinical trials” value is given as “only limited”.

Take `C[C@@H]1COCCN1c1cc(=O)n2c(n1)N(Cc1cncc(Cl)c1)[C@H](C(F)(F)F)CC2` [SAR405, reference compound]: the “transcription of IFNB1 and ISGs IRF1, IRF7, IRF9” value in experiment [3] and in experiment [5] was “significantly increased” in each case. Moreover, the IFNB1 expression result in experiment [4] is recorded as “significantly increased”.
